Numbers after ± are expanded uncertainties.
Conditions: 101.33 kPa, Liquid, transient hot wire

CCO [ethanol]
Conditions | thermal conductivity [W/m/K]
276.51 K | 0.1719 ± 0.0072
287.55 K | 0.1677 ± 0.0071
297.25 K | 0.1645 ± 0.0069
307.16 K | 0.1617 ± 0.0068

CCOC(C)=O [ethyl acetate]
Conditions | thermal conductivity [W/m/K]
249.13 K | 0.1618 ± 0.0065
253.89 K | 0.1602 ± 0.0064
260.17 K | 0.1574 ± 0.0063
268.04 K | 0.154 ± 0.0062
274.35 K | 0.152 ± 0.0061
281.34 K | 0.1491 ± 0.006
285.31 K | 0.1472 ± 0.0059
290.42 K | 0.1451 ± 0.0058
295.44 K | 0.1429 ± 0.0058
298.52 K | 0.1414 ± 0.0057
303.53 K | 0.1396 ± 0.0056
308.44 K | 0.1378 ± 0.0055
313.45 K | 0.1361 ± 0.0055
318.4 K | 0.1346 ± 0.0054
323.25 K | 0.1324 ± 0.0053
328.39 K | 0.1308 ± 0.0053
333.37 K | 0.1288 ± 0.0052
338.34 K | 0.1273 ± 0.0051
343.27 K | 0.1257 ± 0.0051
345.43 K | 0.1245 ± 0.005
348.46 K | 0.1239 ± 0.005

CCCC(=O)OCC [ethyl butanoate]
Conditions | thermal conductivity [W/m/K]
268.57 K | 0.1471 ± 0.0059
273.61 K | 0.1446 ± 0.0058
278.63 K | 0.1423 ± 0.0057
283.58 K | 0.1408 ± 0.0057
288.65 K | 0.1385 ± 0.0056
293.58 K | 0.1374 ± 0.0055
298.53 K | 0.1357 ± 0.0055
303.56 K | 0.1339 ± 0.0054
308.67 K | 0.132 ± 0.0053
313.49 K | 0.1311 ± 0.0053
318.61 K | 0.1293 ± 0.0052
323.42 K | 0.1282 ± 0.0052
328.48 K | 0.1264 ± 0.0051
333.46 K | 0.1249 ± 0.005
338.5 K | 0.1234 ± 0.005
343.51 K | 0.1214 ± 0.0049
348.54 K | 0.12 ± 0.0048
353.36 K | 0.1192 ± 0.0048
358.57 K | 0.1173 ± 0.0047
363.52 K | 0.1163 ± 0.0047

CCCCCC(=O)OCC [ethyl hexanoate]
Conditions | thermal conductivity [W/m/K]
254.29 K | 0.1474 ± 0.0059
264.08 K | 0.1447 ± 0.0058
274.02 K | 0.1429 ± 0.0058
283.95 K | 0.1398 ± 0.0056
293.74 K | 0.1375 ± 0.0055
303.7 K | 0.1353 ± 0.0054
313.76 K | 0.1323 ± 0.0053
323.67 K | 0.13 ± 0.0052
333.63 K | 0.1268 ± 0.0051
343.56 K | 0.1242 ± 0.005
353.55 K | 0.1216 ± 0.0049
363.41 K | 0.1191 ± 0.0048
373.4 K | 0.1172 ± 0.0047
383.37 K | 0.1153 ± 0.0046

CCCCC(=O)OCC [ethyl pentanoate]
Conditions | thermal conductivity [W/m/K]
249.21 K | 0.1501 ± 0.006
263.9 K | 0.1458 ± 0.0059
273.5 K | 0.1433 ± 0.0058
283.8 K | 0.1396 ± 0.0056
288.74 K | 0.1389 ± 0.0056
289.42 K | 0.1377 ± 0.0055
293.69 K | 0.1369 ± 0.0055
298.79 K | 0.1357 ± 0.0055
303.69 K | 0.1344 ± 0.0054
308.61 K | 0.1328 ± 0.0053
313.74 K | 0.1314 ± 0.0053
318.49 K | 0.1301 ± 0.0052
323.74 K | 0.1282 ± 0.0052
328.62 K | 0.1268 ± 0.0051
333.51 K | 0.1256 ± 0.0051
338.47 K | 0.1241 ± 0.005
343.55 K | 0.1228 ± 0.0049
348.55 K | 0.1216 ± 0.0049
353.49 K | 0.1201 ± 0.0048
358.46 K | 0.1184 ± 0.0048
363.57 K | 0.1177 ± 0.0047

CCOC(=O)CC [ethyl propanoate]
Conditions | thermal conductivity [W/m/K]
263.55 K | 0.1547 ± 0.0062
268.41 K | 0.1531 ± 0.0062
270.94 K | 0.152 ± 0.0061
278.51 K | 0.1474 ± 0.0059
283.51 K | 0.1447 ± 0.0058
288.56 K | 0.143 ± 0.0058
293.54 K | 0.1408 ± 0.0057
296.36 K | 0.1404 ± 0.0057
301.4 K | 0.1384 ± 0.0056
306.51 K | 0.1365 ± 0.0055
311.34 K | 0.1348 ± 0.0054
316.45 K | 0.1332 ± 0.0054
321.47 K | 0.1314 ± 0.0053
326.44 K | 0.13 ± 0.0052
331.53 K | 0.128 ± 0.0052
336.4 K | 0.1264 ± 0.0051
341.36 K | 0.125 ± 0.005
346.42 K | 0.1231 ± 0.005
351.35 K | 0.1219 ± 0.0049
356.28 K | 0.1208 ± 0.0049

O [water]
Conditions | thermal conductivity [W/m/K]
299.55 K | 0.613 ± 0.026
309.83 K | 0.6313 ± 0.026
319.56 K | 0.6399 ± 0.027
332.53 K | 0.6555 ± 0.028
339.33 K | 0.657 ± 0.028
349.41 K | 0.6723 ± 0.028

Source: the NIST ThermoML archive (doi:10.1016/j.jct.2019.06.014)
